According to PubChem BioAssay AID624491 (Broad Institute, 2012):
Activity calls are given as the source filed them.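 The calls were made as follows: active = fitted curve crossing a set activation limit at or below the highest valid dose tested; inconclusive = flat fit at 30 to 70% activation, or poor fit; inactive = the rest, including signal decreases.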

What follows are molecules tested on D54 ERlucT glycosylation luciferase reporter, luminescence, 24 h (assay: blockers of NLG process in reporter cells – D54 ERlucT cells, luminescence, cherry-picks, dose response (AID 624491);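 also: signal gain reflects blocked N-linked glycosylation of a luciferase reporter; actives raise luciferase signal so AC26 marks activators of the reporter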).

| Compound | AC26 |
| --- | --- |
| COc1cc2c(cc1OC)C(c1cccs1)N(C(=O)c1cccc(S(=O)(=O)N(C)C)c1)CC2 (centres undefined) | 1320 nM |
| CCOC(=O)c1[nH]c(C)c(C(=O)OCC(=O)NC(C)c2ccc(F)cc2)c1C (centres undefined) | 3150 nM |
| c1ccc(CNc2nc(-c3ccccc3)nc3ccccc23)cc1 | 1570 nM |
| O=C1c2ccccc2C(=O)N1Cc1cnc(N2CCN(c3ccccc3)CC2)s1 | 7870 nM |
| Cn1nc(C(=O)Nc2cccc(S(=O)(=O)N3CCCC3)c2)c2ccccc2c1=O | 666 nM |
| CN1C(=O)C(=Cc2sc(=O)n(-c3ccccc3)c2N(C)C)C(=O)N(C)C1=O | 5320 nM |
| COc1cc(NC(=O)CN2c3cccc4cccc(c34)S2(=O)=O)cc(OC)c1OC | 1770 nM |
| Cc1cc(Sc2ccc([N+](=O)[O-])cn2)ccc1Br | 6940 nM |
| COc1cc(NC(=O)c2ccc(-c3c(C)noc3C)c3ccoc23)cc(OC)c1OC | 3770 nM |
| CC(Nc1nc(-c2ccccc2)nc2ccccc12)c1ccccc1 (centres undefined) | 80.3 nM |
| COC(=O)c1ccc2c(=O)n(Cc3ccco3)c(SCC(=O)Nc3cc(C)on3)nc2c1 | 2190 nM |
| Cc1ccc(NC(=O)c2ncn(CCCNCc3ccccc3)n2)cc1C | 800 nM |
| OCC1OC(n2ccc3c(SCc4ccccc4)ncnc32)C(O)C1O (centres undefined) | 332 nM |
| COc1ccc(NC(=O)C2Cc3c(-c4cccc(NC(C)=O)c4)ccnc3O2)cc1 (centres undefined) | 1560 nM |
| Cc1ccc2c(c1)C(=O)N1[C@H]3c4cc(Cl)ccc4OC[C@@H]3[C@H](c3ccccc3)[C@]1(C)C(=O)N2 | 1260 nM |
| Cn1ncc2c(O/N=C(\N)c3ccc(C(F)(F)F)cc3)ncnc21 | 445 nM |
| COc1ccc(-c2oc3cc(O)c(OC)c(O)c3c(=O)c2OC)cc1O | 246 nM |
| CCN(CC)CCn1c2ccccc2c2nc3ccccc3nc21 | 1950 nM |
| Cc1ccc(CNC(=O)Cc2ccc(Br)cc2)cc1 | 6690 nM |
| COc1ccc(Nc2nc(N3CCCC3)nc3ccccc23)c(OC)c1 | 1950 nM |
| C[C@@H]1[C@@H](Sc2ccccc2)CC(=O)O[C@@H]1c1ccc(-c2ccccc2)cc1 | 920 nM |
| CC[C@]12c3[nH]c4cc(CCC(=O)N(C)C)ccc4c3CCN1C(=O)[C@@H](CC(=O)NC/C=C(\C)CCC=C(C)C)C[C@@H]2C(=O)N1CCN(C(=O)c2ccco2)CC1 | 2860 nM |

| Compound | AC26 |
| --- | --- |
| CCN1C(=O)c2cccc3c(S(=O)(=O)Nc4ccccn4)ccc1c23 | 2870 nM |
| c1ccc(-n2nnnc2-c2cccc3ccccc23)cc1 | 2390 nM |
| COc1ccc(NC(=O)C(=O)NCCC2CCCCN2S(=O)(=O)c2ccccc2)cc1 (centres undefined) | 5680 nM |
| COc1ccccc1-c1c(C#N)c(N)nc2c1CCc1ccccc1-2 | 592 nM |
| Cc1c(-c2cccc(Cl)c2)nc2ccccc2c1C(=O)OC/C(O)=C(\C#N)c1nc2ccccc2[nH]1 | 5750 nM |
| Cn1c(C(=O)NC2CCCCCC2)cc2c(=O)n(C)c3ccccc3c21 | 4470 nM |
| O=C(NC1CCCCCC1)c1c2c(nc3ccccc13)CCN(Cc1ccccc1)C2 | 5800 nM |
| CCNc1nc(NC(C)(C)C)nc(SC(C(C)=O)C(C)=O)n1 | 208 nM |
| Cc1cc(NC(=O)COC(=O)c2ccc(S(=O)(=O)N3CCCc4ccccc43)cc2)no1 | 665 nM |
| CC(=O)Nc1ccc(-c2ccnc3c2CC(C(=O)NCc2cccc(Cl)c2)O3)cc1 (centres undefined) | 540 nM |
| C[C@@]12C(=O)Nc3cc(Cl)ccc3C(=O)N1[C@H]1c3cc(Br)ccc3OC[C@@H]1[C@@H]2c1ccccc1 | 961 nM |
| Cc1ccc(C(=O)Nc2ccccc2C(=O)N2CC(C)OC(C)C2)cc1 (centres undefined) | 1330 nM |
| CN(Cc1ccccc1)c1nc2c(c(=O)n(C)c(=O)n2C)n1CCCc1ccccc1 | 981 nM |
| Cc1cc(NCCCn2ccnc2)n2nc(C)c(-c3ccccc3)c2n1 | 1170 nM |
| O=C(Nc1ccc(Cc2ccncc2)cc1)c1ccc([N+](=O)[O-])o1 | 1150 nM |
| Cc1cccc(C(=O)Oc2ccccc2/C=N/NC(=O)c2ccc(NC(=O)C(C)(C)C)cc2)c1 | 1550 nM |
| CCOC(=O)/C(=C\c1ccccc1)C(=O)c1cc(C(C)=O)c(Nc2ccccc2)s1 | 1150 nM |
| Nc1c2ccccc2nc2ccccc12 | 364 nM |
| COc1cc(OC)c2c(-c3cccc(-c4ccoc4)c3)cc(=O)oc2c1 | 7640 nM |
| Cc1noc2ncnc(Sc3ccc(Br)cc3)c12 | 4470 nM |
| O=C(NCc1ccco1)C1CC(c2ccc(C(F)(F)F)cc2)=NO1 (centres undefined) | 9730 nM |
| c1ccc2c(c1)nc(N1CCOCC1)c1c3ccccc3[nH]c21 | 7170 nM |

| Compound | AC26 |
| --- | --- |
| Cc1cc(C)nc(/N=C(\N)Nc2ccc(OCCC(C)C)cc2)n1 | 776 nM |
| COc1ccc(/C=N/NC(=O)c2cccc(NC(=O)c3ccccc3Cl)c2)cc1 | 5130 nM |
| Cc1ccc(COc2cccc(/C=N/NC(=O)c3nnn(-c4nonc4N)c3C)c2)cc1 | 1160 nM |
| O=C(NCCc1ccccc1)c1coc(=O)c(Br)c1 | 1530 nM |
| COc1ccc(C(=O)Nc2ccc3[nH]c(-c4cccc(OC)c4)cc(=O)c3c2)cc1 | 330 nM |
| Oc1ccc(CCNc2c3ccccc3nc3ccccc23)cc1O | 638 nM |
| COc1cc(NC(C(=O)Nc2cccc(C(C)=O)c2)c2ccccc2)cc(OC)c1OC (centres undefined) | 890 nM |
| CCC12CCC3c4ccc(O)cc4CCC3C1CC(O)C2O (centres undefined) | 10000 nM |
| CCOC(=O)c1c(NC(=O)CN2C(=O)NC3(CCCCC3C)C2=O)sc(C)c1CC (centres undefined) | 6750 nM |
| COc1ccccc1-c1csc(C(NC(C)=O)c2ccccc2)n1 (centres undefined) | < 1.2 nM |
| CCOc1ccc(Br)cc1C(=O)Nc1ccc(C(=O)NCC(C)C)cc1 | 4090 nM |
| CC(=O)/C=C/c1ccccc1Oc1c(F)c(F)nc(F)c1F | 183 nM |
| CCOC(=O)c1ccc(N=c2sc(C(=O)OC)cc(=O)n2Cc2ccco2)cc1 | 3830 nM |
| O=C(N/N=C/c1cccs1)c1cc(-c2cccc3ccccc23)n[nH]1 | 4700 nM |
| Cc1ccc(/C=N/NC(=O)C2COc3ccccc3O2)s1 (centres undefined) | 307 nM |
| Cc1ccc(-n2nc(C)c(NC(=O)CCl)c2C)cc1C | 653 nM |
| CCOC(=O)c1c(CN(C)C)n(C)c2c(O)c(N=NC(N)=O)c3ccc(Br)cc3c12 | 242 nM |
| O=C1CC(c2ccccc2F)c2cc3c(cc2N1)CCC3 (centres undefined) | 938 nM |
| CC1(C(=O)NCc2ccco2)Cc2c(-c3ccc(C(N)=O)cc3)ccnc2O1 (centres undefined) | 1390 nM |
| Cc1ccc(-c2nn3c(C)nnc3c3ccccc23)cc1S(=O)(=O)N(C)CCO | 4210 nM |
| COc1cc(-c2nc3ccc(N4CCN(C)CC4)cc3[nH]2)cc(OC)c1OC | 535 nM |
| CCOC(=O)c1ccccc1Nc1cn(C(C)=O)c2ccccc12 | 1790 nM |

| Compound | AC26 |
| --- | --- |
| CC(C)(C)NCC(O)CON=C1c2ccccc2-c2ccccc21 (centres undefined) | 5310 nM |
| NC(=O)c1ccc(NC(=O)CN2C(=O)NC(c3ccccc3)(c3ccccc3)C2=O)cc1 | 3410 nM |
| COc1ccc(C(C)(O)c2nc(-c3ccc(F)cc3OC)cs2)cc1 (centres undefined) | 5930 nM |
| COc1cc(NC(=O)c2noc(C)c2[N+](=O)[O-])c(OC)cc1Cl | 632 nM |
| CCOc1nc(N=C(N)N)nc2c(C)cccc12 | 2480 nM |
| CCNC(=O)c1cc2c(=O)n3cccc(C)c3nc2n(CCc2ccccc2)c1=N | 1520 nM |
| COc1ccc(-c2ccc(C(c3c(C)[nH][nH]c3=O)c3c(C)[nH][nH]c3=O)o2)c([N+](=O)[O-])c1 | 224 nM |
| COc1cc(OC)cc(C(=O)N2CC(=O)Nc3ccccc32)c1 | 565 nM |
| COc1ccc(-c2cc(C(=O)NCC(c3ccccc3)N(C)C)c3ccccc3n2)cc1OC (centres undefined) | 1320 nM |
| Cc1cc2nnc(SCC(=O)NCc3cccs3)n2c2ccccc12 | 1660 nM |
| Nc1ccc(C(=O)Nc2ccccc2N)cc1 | 2880 nM |
| N#Cc1cc2[nH]c3ccccc3c2[n+](-c2ccc([N+](=O)[O-])cc2)c1N | 4410 nM |
| COc1ccc2c(c1)C(=O)N1[C@H]3c4cc(OC)ccc4OC[C@@H]3[C@H](c3ccccc3)[C@]1(C)C(=O)N2 | 197 nM |
| O=c1[nH]c(=O)n([C@H]2C[C@H](O)[C@@H](CO)O2)cc1Br | 1690 nM |
| O=S(=O)(Cc1ccc(Cl)cc1Cl)c1ccc(Cl)cc1 | 234 nM |
| COc1ccc(-c2nc(NCCCN(C)C)c3ccccc3n2)cc1 | 2490 nM |
| Cc1noc(C)c1-c1ccc(C(=O)NCc2cccnc2)c2occc12 | 4700 nM |
| COC(=O)C(=Cc1ccc(-c2ccsc2C(=O)OC)o1)C(=O)OC | 9800 nM |
| COc1ccc(C(=O)NCCN(C)C)c2nc3ccccc3cc12 | 128 nM |
| COc1cc2c(cc1OC)C(C)N(C(=O)Nc1cc(C)cc(C)c1)CC2 (centres undefined) | 6970 nM |
| COc1ccccc1CCNCc1ccc(OC)c(OCc2ccccc2)c1 | 994 nM |
| COc1cc(Nc2nc3c(N)cc(C(F)(F)F)cc3nc2-c2ccccc2)cc(OC)c1OC | 868 nM |

| Compound | AC26 |
| --- | --- |
| Cc1nc([N+](=O)[O-])c(Sc2nc3ccccc3[nH]2)n1Cc1ccccc1 | 8510 nM |
| O=C(O)c1ccc(N/N=C/c2ccc(-c3ccc(Cl)cc3Cl)o2)cc1 | 5330 nM |
| O=C1c2cccc3cccc(c23)C(=O)N1CC1CCN(CC(O)COCc2ccc3c(c2)OCO3)CC1 (centres undefined) | > 19500 nM (inactive) |
| CCOC(=O)c1c(C)c(C(=O)Nc2cc(F)ccc2F)c(C)n1C | 12600 nM |
| CCCNC(=O)c1cc(-c2ccco2)on1 | 3780 nM |
| COc1ccc2noc3c2c1C(=O)c1ccccc1-3 | 441 nM |
| O=C1NC(=O)C(=Cc2c(Cl)cccc2Cl)C(=O)N1 | 2240 nM |
| COc1ccccc1-c1cc(C(=O)Nc2cc(C)nn2-c2ccccc2)no1 | 760 nM |
| C/C(=N/NC(=O)c1cccs1)c1ccc(NC(=O)COc2ccc(Cl)cc2Cl)cc1 | 6270 nM |
| CSc1nnc(-c2sccc2OCc2ccccc2)n1C | 1950 nM |
| COc1ccc(C(=O)C=Cc2ccc(OCc3ccccc3)c(OC)c2)cc1OC | 2690 nM |
| Cc1ccc(C(=O)N2CCC(C(=O)Nc3cccc([N+](=O)[O-])c3)CC2)cc1 | 804 nM |
| OC1CCCN(Cc2ccc3ccc4cccc5ccc2c3c45)C1 (centres undefined) | 4270 nM |
| NC(=O)CC(NC(=O)Cc1ccc(Br)cc1)c1ccc(NC2CCN(Cc3ccccc3)CC2)c([N+](=O)[O-])c1 (centres undefined) | 496 nM |
| CN(C)CCCNc1cc(-c2ccccc2)nc2cc(-c3cccc(F)c3)nn12 | 5210 nM |
| c1ccc2c(c1)c1c(c3ccccc32)CN2CCCC2C1 (centres undefined) | 2700 nM |
| CC1(C(=O)NCc2cccs2)Cc2c(-c3ccc4c(c3)OCO4)ccnc2O1 (centres undefined) | 2060 nM |
| COc1cc(-c2noc(C)c2-c2ccc(N(C)C)nc2)cc(OC)c1OC | 112 nM |
| N#Cc1c(-c2ccc(F)cc2)c(-c2ccc(F)cc2)nn(CCO)c1=O | 2080 nM |
| CC(C)(C)c1nnc2sc(SCC(=O)c3ccc4c(c3)OCCO4)nn2c1=O | 5230 nM |
| COc1cc(/C=C/c2onc(C)c2[N+](=O)[O-])cc(OC)c1OC | 864 nM |
